Active and inactive are the calls of the source. No cut-off for these calls is given here. *1 amine or outer side, *2 acyl side, *3 side chain or, on linkers, in order; H or OH if unused. Where a SMILES comes first, the peptide text is derived from it. Bridges are numbered along the chain shown (N, C = ends). [ ]: non-standard residue; d: D form. X1 = CCCCC[C@](C)(N[*:1])C(=O)[*:2]; S5 = C=CCCC[C@](C)(N)C(=O)O; X2 = C(CCC[*:2])CC[*:1]
Legend:
[1] = Half life of compound; assay type: physicochemical
NIH3T3 [2] = experiment: Inhibition of TGF-beta1-induced EMT in mouse NIH3T3 cells assessed as decrease in alpha-SMA level at 10 uM incubated for 48 hrs by Western blot analysis; assay type: functional, cell-based
NIH3T3 [3] = experiment: Inhibition of TGF-beta1-induced EMT in mouse NIH3T3 cells assessed as decrease in fibronectin level at 10 uM incubated for 48 hrs by Western blot analysis; assay type: functional, cell-based
[4] = Stability in C57BL/6J mouse serum assessed as proteolysis resistance measured up to 72 hrs by HPLC analysis; assay type: ADME, cell-free
NIH3T3 [5] = experiment: Cytotoxicity against mouse NIH3T3 cells assessed as inhibition of cell viability at 10 to 40 uM incubated for 48 hrs by CCK8 assay; assay type: toxicity, cell-based; settings: nih3t3, 48 h, dose 10-40 µM
[6] = Retention time of compound; assay type: physicochemical
HK-2 [7] = experiment: Inhibition of TGF-beta1-induced EMT in human HK-2 cells assessed as decrease in alpha-SMA level at 10 uM incubated for 24 hrs by Western blot analysis; assay type: functional, cell-based
HK-2 [8] = experiment: Inhibition of TGF-beta1-induced EMT in human HK-2 cells assessed as decrease in fibronectin level at 10 uM incubated for 24 hrs by Western blot analysis; assay type: functional, cell-based
HK-2 [9] = experiment: Inhibition of TGF-beta1-induced EMT in human HK-2 cells assessed as decrease in collagen I level at 10 uM incubated for 24 hrs by Western blot analysis; assay type: functional, cell-based
[10] = Toxicity in male C57BL/6J mouse model of unilateral ureteral obstruction assessed as change in animal appearance administered intraperitoneally every day for 7 days; settings: in vivo, ip, 168 h, time 7 day
[11] = Toxicity in male C57BL/6J mouse model of unilateral ureteral obstruction assessed as change in animal behaviour administered intraperitoneally every day for 7 days; settings: in vivo, ip, 168 h, time 7 day
[12] = Toxicity in male C57BL/6J mouse model of unilateral ureteral obstruction assessed as change in animal body weight administered intraperitoneally every day for 7 days; settings: in vivo, ip, 168 h, time 7 day
Mus musculus [13] = experiment: Anti-fibrotic activity in male C57BL/6J mouse model of unilateral ureteral obstruction assessed as decrease in fibronectin level administered intraperitoneally every day for 7 days by Western blot analysis; assay type: functional, organism-based; settings: route ip, time 7.0 day
Mus musculus [14] = experiment: Anti-fibrotic activity in male C57BL/6J mouse model of unilateral ureteral obstruction assessed as increase in E-cadherin level administered intraperitoneally every day for 7 days by Western blot analysis; assay type: functional, organism-based; settings: route ip, time 7.0 day
Mus musculus [15] = experiment: Anti-fibrotic activity in male C57BL/6J mouse model of unilateral ureteral obstruction assessed as decrease in vimentin level administered intraperitoneally every day for 7 days by Western blot analysis; assay type: functional, organism-based; settings: route ip, time 7.0 day
Mus musculus [16] = experiment: Anti-fibrotic activity in male C57BL/6J mouse model of unilateral ureteral obstruction assessed as decrease in alpha-SMA level administered intraperitoneally every day for 7 days by Western blot analysis; assay type: functional, organism-based; settings: route ip, time 7.0 day
[17] = Half life in C57BL/6J mouse at 2.5 mg/kg, iv measured for 3 to 60 mins by HPLC/MS analysis; assay type: ADME, organism-based; settings: in vivo, time 3-60 min
NIH3T3 [18] = experiment: Cytotoxicity against mouse NIH3T3 cells assessed as inhibition of cell viability up to 160 uM incubated for 48 hrs by CCK8 assay; assay type: toxicity, cell-based; settings: nih3t3, 48 h
Mus musculus [19] = experiment: Anti-fibrotic activity in C57BL/6J mouse model of unilateral ureteral obstruction assessed as decrease in renal inflammation at 20 mg/kg, ip administered every day for 7 days by H and E staining based analysis; assay type: functional, organism-based; settings: time 7.0 day
Mus musculus [20] = experiment: Anti-fibrotic activity in C57BL/6J mouse model of unilateral ureteral obstruction assessed as decrease in renal fibrosis at 20 mg/kg, ip administered every day for 7 days by H and E staining based analysis; assay type: functional, organism-based; settings: time 7.0 day

For `C=CCCC[C@](C)(NC(=O)[C@H](CCC(N)=O)NC(=O)[C@@H]1CCCN1C(=O)[C@@H](CC(N)=O)NC(=O)[C@](C)(CCCC=C)NC(=O)[C@H](Cc1c[nH]cn1)NC(=O)[C@@H](CC(=O)O)NC(=O)CCCCCCCCCCC)C(=O)N[C@@H](CCCNC(=N)N)C(N)=O`, the half-life [1] was 208 h, the inhibition (NIH3T3 [2]) was “Active” and the inhibition (NIH3T3 [3]) was “Active”. For the same compound, the Stability [4] was “Stable” and the Activity (NIH3T3 [5]) was “Toxic”.

In the case of `C=CCCC[C@](C)(NC(=O)[C@H](Cc1c[nH]cn1)NC(=O)[C@@H](N)CC(=O)O)C(=O)N[C@@H](CC(N)=O)C(=O)N1CCC[C@H]1C(=O)N[C@@H](CCC(N)=O)C(=O)N[C@H](C(=O)N[C@@H](CCCNC(=N)N)C(N)=O)[C@@H](C)CC` (H-DH[S5]NPQIR-NH2), the Retention_time [6] is reported as 9.036 min, the half-life [1] is reported as 1.64 h and the inhibition (HK-2 [7]) is reported as “Active”. The inhibition (HK-2 [8]) was “Active”, the inhibition (HK-2 [9]) was “Active” and the Activity [10] was “Non-toxic”. For the same compound, the Activity [11] was “Non-toxic”, the Activity [12] was “Non-toxic” and the Activity (Mus musculus [13]) was “Active”. The Activity (Mus musculus [14]) was “Active”, the Activity (Mus musculus [15]) was “Active” and the Activity (Mus musculus [16]) was “Active”. The half-life [17] was 0.19 h.

With `C=CCCC[C@](C)(NC(=O)[C@@H](C)NC(=O)[C@H](CCC(N)=O)NC(=O)[C@@H]1CCCN1C(=O)[C@](C)(CCCC=C)NC(=O)[C@H](CC(N)=O)NC(=O)[C@H](Cc1c[nH]cn1)NC(=O)[C@@H](CC(=O)O)NC(=O)CCCCCCCCCCC)C(N)=O` the half-life [1] was 656 h, the inhibition (NIH3T3 [2]) was “Active” and the inhibition (NIH3T3 [3]) was “Active”. For the same compound, the Stability [4] was “Stable” and the Activity (NIH3T3 [5]) was “Toxic”.

With `C=CCCC[C@](C)(NC(=O)[C@H](Cc1c[nH]cn1)NC(=O)[C@@H](N)CC(=O)O)C(=O)N[C@H]1CSCCCCCCSC[C@@H](C(N)=O)NC(=O)[C@H]([C@@H](C)CC)NC(=O)[C@H](CCC(N)=O)NC(=O)[C@@H]2CCCN2C1=O` (H-DH[S5]CPQIC-NH2; linker 4-8 via X2) the half-life [1] was 1.81 h, the inhibition (NIH3T3 [2]) was “Active” and the inhibition (NIH3T3 [3]) was “Active”. For the same compound, the Stability [4] was “Unstable” and the Activity (NIH3T3 [18]) was “Non-toxic”.

For `C=CCCC[C@](C)(NC(=O)[C@H](Cc1c[nH]cn1)NC(=O)[C@@H](CC(=O)O)NC(=O)CCCCCCCCCCC)C(=O)N[C@H]1CSCCCCCCSC[C@@H](C(N)=O)NC(=O)[C@@H](C)NC(=O)[C@H](CCC(N)=O)NC(=O)[C@@H]2CCCN2C1=O`, the half-life [1] was 91.6 h, the inhibition (NIH3T3 [2]) was “Active” and the inhibition (NIH3T3 [3]) was “Active”. The Stability [4] was “Stable” and the Activity (NIH3T3 [18]) was “Toxic”.

With `CCCCC[C@](C)(NC(=O)[C@H](Cc1c[nH]cn1)NC(=O)[C@@H](N)CC(=O)O)C(=O)N[C@@H](CC(N)=O)C(=O)N1CCC[C@H]1C(=O)N[C@@H](CCC(N)=O)C(=O)N[C@H](C(=O)N[C@@H](CCCNC(=N)N)C(N)=O)[C@@H](C)CC` (H-DH[X1]NPQIR-NH2) the Retention_time [6] was 10.009 min, the inhibition (HK-2 [7]) was “Active” and the inhibition (HK-2 [8]) was “Active”. For the same compound, the inhibition (HK-2 [9]) was “Active”, the Activity [10] was “Non-toxic” and the Activity [11] was “Non-toxic”. The Activity [12] was “Non-toxic”, the Activity (Mus musculus [13]) was “Active” and the Activity (Mus musculus [14]) was “Active”. For the same compound, the Activity (Mus musculus [15]) was “Active” and the Activity (Mus musculus [16]) was “Active”.

In the case of `C[C@H](CS)C(=O)N1CCC[C@H]1C(=O)O`, the Activity (Mus musculus [19]) is reported as “Active” and the Activity (Mus musculus [20]) is reported as “Active”.

In the case of `CC[C@H](C)[C@@H]1NC(=O)[C@H](CCC(N)=O)NC(=O)[C@@H]2CCCN2C(=O)[C@@](C)(NC(=O)[C@H](CC(N)=O)NC(=O)[C@H](Cc2c[nH]cn2)NC(=O)[C@@H](N)CC(=O)O)CCC/C=C/CCC[C@@](C)(C(N)=O)NC1=O` (H-DHN[S5]PQI[S5]-NH2; staple (E) 4-8), the half-life [1] is reported as 12.3 h, the inhibition (NIH3T3 [2]) is reported as “inactive” and the inhibition (NIH3T3 [3]) is reported as “inactive”. For the same compound, the Stability [4] was “Stable” and the Activity (NIH3T3 [18]) was “Non-toxic”.
